The results in this text go back to patent US20250115598A1 (Anaxis Pharma Pty Ltd, priority 2021, published 2025).

Where two headings read alike, the source gives them in different places.

One assay deals with human RIPK1 (Homo sapiens (Human), UniProt Q13546). The experiment in a line: KINOMEscan binding assay, human RIPK1. To be noted: Table 21. An outline of the steps:
(§1)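 Tagged kinase + immobilized ligand beads + compound; eluted kinase quantified by qPCR. Kinase source: T7 phage lysate (BL21-derived E. coli, 32 °C) or HEK-293 with DNA tag. 11-pt 3-fold series, 1% DMSO, top 30,000 nM (most). Hill fit, slope −1 → Kd.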

In a further assay the target is human RIPK3 (Homo sapiens (Human), UniProt Q9Y572). The experiment in a line: KINOMEscan binding assay, human RIPK3. The following applies: Table 21. The method, boiled down: as §1
Sequence of human RIPK3 (Q9Y572 whole entry): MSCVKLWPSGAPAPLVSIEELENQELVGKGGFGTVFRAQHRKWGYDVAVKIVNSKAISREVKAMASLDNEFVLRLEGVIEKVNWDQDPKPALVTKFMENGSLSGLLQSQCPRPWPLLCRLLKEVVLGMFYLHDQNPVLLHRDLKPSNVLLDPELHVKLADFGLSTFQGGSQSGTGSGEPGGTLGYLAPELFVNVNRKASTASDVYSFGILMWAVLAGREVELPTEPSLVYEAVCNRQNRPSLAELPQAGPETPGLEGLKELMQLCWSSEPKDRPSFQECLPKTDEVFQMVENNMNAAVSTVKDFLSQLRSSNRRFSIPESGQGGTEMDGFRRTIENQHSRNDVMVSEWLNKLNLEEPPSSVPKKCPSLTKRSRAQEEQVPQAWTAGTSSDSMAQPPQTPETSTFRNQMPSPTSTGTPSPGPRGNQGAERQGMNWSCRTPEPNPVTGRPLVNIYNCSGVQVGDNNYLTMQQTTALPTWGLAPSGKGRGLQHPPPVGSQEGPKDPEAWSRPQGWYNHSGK
A further assay relates to U937 cells. As to the kind of experiment: Counter screen: cell viability without the TSQ cocktail (off-target effect). Details: species or system human. The protocol: (§2) • Cell Line ID: U937 human histiocytic leukemia cell line. • Cell Concentration (cells/well): Final cell density is 20000 cells per well. • Cell growth medium: HT-RPMI medium+7.4% Fetal Bovine Serum (FBS). Cells are cultured in Corning 150 cm^2 tissue culture flasks with vented caps at 37° C./5% CO2. • Incubation: Plates were incubated at 37° C./5% CO2 in a humidified incubator for 48 hours following addition of compounds and death stimuli (TSQ cocktail). • Compound concentration: 36 μM starting concentration, 1:3 dilution, 10 point • DMSO final concentration (% v/v): 0.3%. Compounds in TSQ Cocktail (T: TNF; S: Smac Mimetic; Q: Q-VD-OPh) and their Final Concentrations: • hTNF-Fc (100 ng/ml)—produced by standard procedures as shown in Bossen et al., J. Biol. Chem., 2006, 281(20), 13964-13971. • Compound A (500 nM)—Smac mimetic, Tetralogic and SYNthesis med chem • Q-VD-OPh (10 μM)—MP Biomedicals
(§3) The cellular assay was carried out according to the following steps: • 1. Each well was prepared by sequential addition of: • a. DMSO (control; columns 1-2 and 23-24) or compound in DMSO—addition was performed using acoustic transfer of nL volumes of stock compound to give final test concentrations of 36, 12, 4, 1.3, 0.44, 0.148, 0.049, 0.016, 0.005 and 0.002 μM. All wells were backfilled with DMSO to a final total volume in the well of 100 nL. • b. Following compound/DMSO addition in step (a), 40 μL of cell suspension (5×10^5 cells/mL) was added to provide a final cell concentration of 20,000 cells per well, and • c. Following cell addition in step (b), 10 μL of 5×TSQ cocktail (except to positive controls; columns 1 and 23) was added to each well. • 2. After 48 hours, plate was removed from the 37° C. incubator and equilibrated to room temperature for 45 minutes. • 3.15 μL of room temperature CellTitre-Glo2™ (Promega™) was added to each well. • 4. Shook plates for 2 minutes (˜600 rpm) and incubated at room temperature for 15 minutes to allow signal to stabilise. • 5. Read luminescence readout on a plate reader.
(§4) • Assay involving the TSQ cocktail (T: TNF; S: Smac mimetic; Q: Q-VD-OPh): TSQ treatment ensures that cells specifically undergo necroptotic cell death. TNF activates the TNF receptor, Smac mimetic directs the signal away from proinflammatory signaling and toward the RIPK1/RIPK3-mediated cell death pathways, and Q-VD-OPh ensures that the apoptotic response is blocked leaving only the programmed necrosis response. The compounds' activity (solution in DMSO) tested in this TSQ-induced assay was evaluated by determining the number of viable cells in culture by measuring the amount of ATP present as measured by CelltiterGlo. • Counter screen: In parallel, all compounds were tested for their ability to affect cell viability. The same U937 cells were treated with compound in DMSO without the TSQ cocktail. This counter screen enabled evaluation of off-target effects. In this case, cell viability was measured by CelltiterGlo.

Assay [1] deals with Immortalised Mouse Dermal Fibroblasts (MDFs). As to the kind of experiment: Cellular assay: inhibition of TSI induced necroptosis, CellTitre-Glo viability. To be noted: Mus musculus, Fibroblast; MDF, 3 hours TSI cocktail, Table 24; read-out: Inhibition of TSI-induced necroptosis (IC50 cell-based assay) in MDF. The method, boiled down:
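Necroptosis induced for 3 h with TSI: rhTNF 100 ng/ml, Smac mimetic 500 nM, caspase inhibitor IDN-6556 10 μM. Mouse dermal fibroblasts had received compound (36 μM top, ten three-fold steps) 30 min beforehand. ATP-based viability scaled between untreated and TSI-only wells; IC50 taken as 4-parameter curve inflection.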

The target in the next assay is human MLKL (full length) (Homo sapiens (Human), UniProt Q8NB16). The experiment in a line: KINOMEscan binding assay, human MLKL (full length). To be noted: hMLKL, Table 25; read-out: MLKL (KD). The method, boiled down: as §1
Sequence of human MLKL (full length) (Q8NB16 whole entry): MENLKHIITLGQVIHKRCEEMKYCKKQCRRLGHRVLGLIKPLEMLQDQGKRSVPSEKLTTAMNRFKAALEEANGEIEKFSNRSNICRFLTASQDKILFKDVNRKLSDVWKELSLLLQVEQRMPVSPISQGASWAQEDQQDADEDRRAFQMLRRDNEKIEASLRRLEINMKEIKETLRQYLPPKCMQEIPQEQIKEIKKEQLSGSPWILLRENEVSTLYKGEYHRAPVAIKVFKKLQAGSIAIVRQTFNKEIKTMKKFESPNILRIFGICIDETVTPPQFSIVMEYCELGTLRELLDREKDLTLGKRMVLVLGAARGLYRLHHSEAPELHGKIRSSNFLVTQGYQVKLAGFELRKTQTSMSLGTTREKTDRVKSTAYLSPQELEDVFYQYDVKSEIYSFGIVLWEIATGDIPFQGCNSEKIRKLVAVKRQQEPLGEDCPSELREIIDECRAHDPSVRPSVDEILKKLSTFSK
Assay [2] concerns U937 human histiocytic leukemia cell line. As to the kind of experiment: Cellular assay: inhibition of TSQ induced necroptosis, CellTitre-Glo viability. To be noted: Homo sapiens, U-937; U937 cells, 48 hours, TSQ cocktail, Table 26; read-out: Inhibition of TSQ-induced necroptosis (IC50 cell-based assay). The protocol:
Cellular Assay: Screening Compounds for Inhibition of TSQ Induced Necroptosis, 384 Well Plate Format.
as §2, §3
Percent viability was calculated for each compound according to equation (2):
as §4

The mark [3] stands for this setting: Homo sapiens, U-937, Table 23, read-out: Off-target effect (IC50 cell-based assay).
[4] abbreviates: Homo sapiens, U-937, Table 26, read-out: Off-target effect (IC50 cell-based assay).

Sequence of human RIPK1 (Q13546 whole entry): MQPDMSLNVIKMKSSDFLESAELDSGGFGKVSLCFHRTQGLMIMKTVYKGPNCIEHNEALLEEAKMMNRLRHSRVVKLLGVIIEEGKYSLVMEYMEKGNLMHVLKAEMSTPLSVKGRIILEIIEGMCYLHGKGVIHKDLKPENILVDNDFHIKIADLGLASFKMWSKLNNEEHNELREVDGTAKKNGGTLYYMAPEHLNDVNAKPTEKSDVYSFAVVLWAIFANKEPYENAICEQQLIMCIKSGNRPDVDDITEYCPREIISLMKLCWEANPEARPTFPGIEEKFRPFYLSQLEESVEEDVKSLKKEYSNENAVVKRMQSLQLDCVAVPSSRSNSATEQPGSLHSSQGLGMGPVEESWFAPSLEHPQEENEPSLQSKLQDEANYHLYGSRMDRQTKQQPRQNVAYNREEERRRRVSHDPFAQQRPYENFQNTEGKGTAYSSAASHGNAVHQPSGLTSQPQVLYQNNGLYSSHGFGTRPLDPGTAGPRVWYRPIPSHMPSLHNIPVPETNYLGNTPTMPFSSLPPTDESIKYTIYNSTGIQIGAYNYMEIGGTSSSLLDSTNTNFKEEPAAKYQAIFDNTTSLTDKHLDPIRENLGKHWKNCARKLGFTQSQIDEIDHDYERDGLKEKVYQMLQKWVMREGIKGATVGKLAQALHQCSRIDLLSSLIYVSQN

As to `C[C@H](Oc1cc(-c2nn(C)c3c(-c4cnn(C5CCN(C)CC5)c4)cnc(N)c23)ccc1NS(=O)(=O)C(F)F)c1ccc(F)cc1` [Compound 46, (S)-N-(4-(4-amino-1-methyl-7-(1-(1-methylpiperidin-4-yl)-1H-pyrazol-4-yl)-1H-pyrazolo[4,3-c]pyridin-3-yl)-2-(1-(4-fluorophenyl)ethoxy)phenyl)-1,1-difluoromethanesulfonamide], the Kd on human RIPK1 and on human RIPK3 was above 10 µM in each case. For the same compound, the IC50 in the assay with U937 cells (setting [3]) was above 10 µM; in assay [1], below 1000 nM.
In the case of `C[C@H](Oc1cc(-c2nn(C)c3c(-c4cnn(C5CCN(C)C6(CC6)C5)c4)cnc(N)c23)ccc1NS(=O)(=O)C(F)F)c1ccc(F)cc1` (single isomer, unassigned) [Compound 171, N-(4-(4-amino-1-methyl-7-(1-((R*)-4-methyl-4-azaspiro[2.5]octan-7-yl)-1H-pyrazol-4-yl)-1H-pyrazolo[4,3-c]pyridin-3-yl)-2-((S)-1-(4-fluorophenyl)ethoxy)phenyl)-1,1-difluoromethanesulfonamide], the IC50 with U937 cells (Table 23, read-out: Off-target effect (IC50 cell-based assay)) was above 10 µM.
On to `CCS(=O)(=O)Nc1ccc(-c2nn(C)c3c(-c4cnn(CCOCCOCC(=O)N[C@H](C(=O)N5C[C@H](O)C[C@H]5C(=O)NCc5ccc(-c6scnc6C)cc5)C(C)(C)C)c4)cnc(N)c23)cc1` [Compound 1019, (2S,4R)-1-[(2S)-2-{2-[2-(2-{4-[4-amino-3-(4-ethanesulfonamidophenyl)-1-methyl-1H-pyrazolo[4,3-c]pyridin-7-yl]-1H-pyrazol-1-yl}ethoxy)ethoxy]acetamido}-3,3-dimethylbutanoyl]-4-hydroxy-N-{[4-(4-methyl-1,3-thiazol-5-yl)phenyl]methyl}pyrrolidine-2-carboxamide], for which the Kd on human MLKL (full length) lay in the range of 10 to 1000 nM. The IC50 is 1000 to 10000 nM in assay [2] and above 10 µM in the assay on U937 cells (setting [4]).
For the compound `Cc1ncsc1-c1ccc(CNC(=O)[C@@H]2C[C@H](O)CN2C(=O)[C@@H](NC(=O)COCCOCCn2cc(-c3cnc(N)c4c(-c5ccc(NS(=O)(=O)C(F)F)c(O[C@@H](C)c6ccc(F)cc6)c5)nn(C)c34)cn2)C(C)(C)C)cc1` [Compound 1007, (2S,4S)-1-[(2S)-2-(2-{2-[2-(4-{4-amino-3-[4-(difluoromethanesulfonamido)-3-[(1S)-1-(4-fluorophenyl)ethoxy]phenyl]-1-methyl-1H-pyrazolo[4,3-c]pyridin-7-yl}-1H-pyrazol-1-yl)ethoxy]ethoxy}acetamido)-3,3-dimethylbutanoyl]-4-hydroxy-N-{[4-(4-methyl-1,3-thiazol-5-yl)phenyl]methyl}pyrrolidine-2-carboxamide], on human MLKL (full length), the Kd lay within 10 to 1000 nM. Also, the IC50 in assay [2] is below 1000 nM; in the assay on U937 cells (setting [4]), above 10 µM.
Regarding `CCS(=O)(=O)Nc1ccc(-c2nn(C)c3c(-c4cnn(CCCCCCC(=O)N[C@H](C(=O)N5C[C@H](O)C[C@H]5C(=O)NCc5ccc(-c6scnc6C)cc5)C(C)(C)C)c4)cnc(N)c23)cc1` [Compound 1020, (2S,4R)-1-[(2S)-2-(7-{4-[4-amino-3-(4-ethanesulfonamidophenyl)-1-methyl-1H-pyrazolo[4,3-c]pyridin-7-yl]-1H-pyrazol-1-yl}heptanamido)-3,3-dimethylbutanoyl]-4-hydroxy-N-{[4-(4-methyl-1,3-thiazol-5-yl)phenyl]methyl}pyrrolidine-2-carboxamide], the Kd on human MLKL (full length) was 10 to 1000 nM. For the same compound, the IC50 was below 1000 nM in assay [2] and above 10 µM with U937 cells (setting [4]).
As for `Cc1ncsc1-c1ccc(CNC(=O)[C@@H]2C[C@@H](O)CN2C(=O)[C@@H](NC(=O)COCCN2CCC(n3cc(-c4cnc(N)c5c(-c6ccc(NS(=O)(=O)C(F)F)c(O[C@@H](C)c7ccc(F)cc7)c6)nn(C)c45)cn3)C2)C(C)(C)C)cc1` (stereo partly drawn) [Compound 1013, (2S,4R)-1-[(2S)-2-(2-{2-[3-(4-{4-amino-3-[4-(difluoromethanesulfonamido)-3-[(1S)-1-(4-fluorophenyl)ethoxy]phenyl]-1-methyl-1H-pyrazolo[4,3-c]pyridin-7-yl}-1H-pyrazol-1-yl)pyrrolidin-1-yl]ethoxy}acetamido)-3,3-dimethylbutanoyl]-4-hydroxy-N-{[4-(4-methyl-1,3-thiazol-5-yl)phenyl]methyl}pyrrolidine-2-carboxamide], the Kd on human MLKL (full length) is below 10 nM. The IC50 in assay [2] was 1000 to 10000 nM; in the assay with U937 cells (setting [4]) it was above 10 µM.
Regarding `C[C@H](Oc1cc(-c2nn(C)c3c(-c4cnn(C5CCN(C)C6(CC6)C5)c4)cnc(N)c23)ccc1NS(=O)(=O)C(F)F)c1ccc(F)cc1` (single isomer, unassigned) [Compound 170, N-(4-(4-amino-1-methyl-7-(1-((S*)-4-methyl-4-azaspiro[2.5]octan-7-yl)-1H-pyrazol-4-yl)-1H-pyrazolo[4,3-c]pyridin-3-yl)-2-((S)-1-(4-fluorophenyl)ethoxy)phenyl)-1,1-difluoromethanesulfonamide], the IC50 in the assay with U937 cells (setting [3]) is above 10 µM.
Take `CCS(=O)(=O)Nc1ccc(-c2nn(C)c3c(-c4cnn(CCOCCOCC(=O)N[C@H](C(=O)N5C[C@H](O)C[C@H]5C(=O)NCc5ccc(-c6scnc6C)cc5)C(C)(C)C)c4)cnc(C)c23)cc1F` [Compound 1029, (2S,4R)-1-[(2S)-2-{2-[2-(2-{4-[3-(4-ethanesulfonamido-3-fluorophenyl)-1,4-dimethyl-1H-pyrazolo[4,3-c]pyridin-7-yl]-1H-pyrazol-1-yl}ethoxy)ethoxy]acetamido}-3,3-dimethylbutanoyl]-4-hydroxy-N-{[4-(4-methyl-1,3-thiazol-5-yl)phenyl]methyl}pyrrolidine-2-carboxamide]: the results for the IC50 (in assay [2]; with U937 cells (setting [4])) were below 1000 nM and above 10 µM, respectively.
In the case of `CCS(=O)(=O)Nc1ccc(-c2n[nH]c3c(-c4cnn(CCCCC(=O)N[C@H](C(=O)N5C[C@H](O)C[C@H]5C(=O)NCc5ccc(-c6scnc6C)cc5)C(C)(C)C)c4)cnc(N)c23)cc1OCc1ccc(F)cc1` [Compound 1002, (2S,4R)-1-[(2S)-2-{5-[4-(4-amino-3-{4-ethanesulfonamido-3-[(4-fluorophenyl)methoxy]phenyl}-1H-pyrazolo[4,3-c]pyridin-7-yl)-1H-pyrazol-1-yl]pentanamido}-3,3-dimethylbutanoyl]-4-hydroxy-N-{[4-(4-methyl-1,3-thiazol-5-yl)phenyl]methyl}pyrrolidine-2-carboxamide], the Kd on human MLKL (full length) was below 10 nM. The IC50 in assay [2] is above 10000 nM; in the assay on U937 cells (setting [4]), above 10 µM.
Regarding `C[C@H](Oc1cc(-c2nn(C)c3c(-c4ccnc(C(C)(C)C)c4)cnc(N)c23)ccc1NS(=O)(=O)C(F)F)c1ccc(F)cc1` [Compound 48, (S)-N-(4-(4-amino-7-(2-(tert-butyl)pyridin-4-yl)-1-methyl-1H-pyrazolo[4,3-c]pyridin-3-yl)-2-(1-(4-fluorophenyl)ethoxy)phenyl)-1,1-difluoromethanesulfonamide], the Kd on human RIPK1 and at human RIPK3 was above 10 µM each time. Besides, the IC50 in the assay with U937 cells (setting [3]) is 1 to 10 µM.
